As usually defined, the IC50 is the concentration needed to halve the response being measured.

These results are taken from US20240018120A1, “MAGL INHIBITORS” (H. LUNDBECK A/S, priority 2020, published 2024).

Data set [1] deals with T1, MAGL (Homo sapiens, UniProt Q99685).
T1 sequence (Q99685 1-303): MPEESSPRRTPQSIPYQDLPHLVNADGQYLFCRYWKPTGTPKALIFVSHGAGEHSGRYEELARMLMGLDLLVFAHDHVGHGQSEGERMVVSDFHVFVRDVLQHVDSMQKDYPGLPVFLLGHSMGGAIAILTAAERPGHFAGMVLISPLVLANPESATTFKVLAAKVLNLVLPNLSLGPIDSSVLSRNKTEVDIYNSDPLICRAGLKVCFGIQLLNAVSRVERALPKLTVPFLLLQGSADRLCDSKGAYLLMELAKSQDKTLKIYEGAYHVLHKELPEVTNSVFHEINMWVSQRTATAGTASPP
Description: In vitro competitive substrate hydrolysis enzyme activity assay (pNPA), HEK293 cell lysates. Particulars: HEK293 lysate. Details: expressed in transfected cells; host or cells: HEK293. It counts as biochemical. An outline of the steps: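 Lysates of HEK293 cells expressing human MAGL (~1.2 μg protein) preincubated 30 min at 25° C with inhibitor in 50 mM HEPES pH 7.0, 200 mM KCl, 1 mM EDTA. pNPA substrate then added (2× stock 2.5 mM), and A405 followed for 20 min at 25° C. Rates normalized to DMSO, and IC50 from 4-parameter fit.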

Data set [2] addresses T1, MAGL. Description: In vitro competitive activity-based protein profiling, PC3 human cell membrane proteomes. It counts as biochemical. Further details: endogenous in cells; host or cells: PC3 human cells (membrane proteome). Particulars: human PC3 membrane proteome; for inhibition at 1 µM: read-out: MAGL % inh. 1 μM (human PC3). An outline of the steps: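 Competitive ABPP in PC3 membrane proteome (2.0 mg/mL protein): inhibitors preincubated 30 min at 37° C, then JW912-Bodipy probe added for 30 min at room temperature. MAGL band fluorescence after SDS-PAGE normalised to DMSO; IC50 from 4-parameter sigmoidal fit.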

For data set [3], the system named is cryopreserved human hepatocytes. Description: In vitro human hepatocyte stability. The following applies: human hepatocytes 0.5×10^6 cells/mL, 1 μM. It counts as in vitro ADME. On the procedure:
The metabolic stability of test articles (1 μM) in commercially sourced, pooled donor, cryopreserved human hepatocytes (0.5×10^6 cells/mL) was determined in duplicate. The CLint reactions (250 μL) were initiated by addition of test compound. Aliquots (25 μL) were taken at 0, 15, 30, 45, 60, 90, 120 and 240 minutes and then protein crashed with ice-cold acetonitrile containing internal standard then centrifuged (3220 g for 25 minutes). Supernatant was used for LC-MS/MS analysis. The in vitro half-life (in vitro t½) was determined from the slope value: in vitro t1/2=−0.693/k. Conversion of the in vitro t1/2 (in min) into the scale-up unbound intrinsic clearance (Scaled-up unbound CLint, in mL/min/kg) was done using the following equation (mean of duplicate determinations), with data shown in Table 5: Scaled-up unbound CLint=kV/N×scaling factor. V=incubation volume (0.25 mL); N=number of hepatocytes per well ([…]). Scaling factors for in vivo intrinsic clearance prediction are listed below: […]

Data set [4] addresses T2, MAGL (Rattus norvegicus, UniProt Q8R431).
T2 sequence (Q8R431 1-303): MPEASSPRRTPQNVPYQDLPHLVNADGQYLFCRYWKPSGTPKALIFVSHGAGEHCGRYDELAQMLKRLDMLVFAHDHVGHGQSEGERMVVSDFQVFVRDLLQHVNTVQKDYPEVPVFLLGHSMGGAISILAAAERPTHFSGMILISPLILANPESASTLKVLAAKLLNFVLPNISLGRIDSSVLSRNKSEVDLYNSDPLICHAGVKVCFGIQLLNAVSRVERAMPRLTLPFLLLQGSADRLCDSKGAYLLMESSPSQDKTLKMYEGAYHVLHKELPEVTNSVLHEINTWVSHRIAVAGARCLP
Description: MAGL IC50 values marked (rat) in Table 1. The following applies: cell marked (rat) in the human PC3 column. It counts as biochemical.

The subject of data set [5] is rat formalin paw model of inflammatory pain. Description: Rat formalin paw model of inflammatory pain. The class given is in vivo. The following applies: 4 h pre-test, vs vehicle. The procedure:
In the rat formalin paw model formalin is administered into the right […] of a rat in order to induce pain (observed by hind limb licking duration and frequency).
Male Sprague Dawley rats were divided into three cohorts to enable testing in the Laboras™ equipment to be carried out over three days in a balanced design to give treatment groups of 10. On the day of the study, male Sprague Dawley rats were weighed, tail marked and dosed orally with vehicle, test compound (0.1, 0.3, 0.6, 1, 3 or 10 mg/kg) or pregabalin (30 mg/kg) 4 h pre-test using a 5 mL/kg dosing volume. For Example 6 the vehicle used was 0.5% methylcellulose in water and for Example 8 the vehicle used was 20% HP-b-CD. Up to six animals were dosed at a time. After 4 h, rats received an intraplantar injection of 50 μL of a 2.5% v/v formalin solution into the right hind paw. Rats were immediately placed into the Laboras™ cages and data acquisition started. The primary measures recorded by Laboras™ for the formalin paw model are hind limb licking duration and frequency. Locomotion is also reported as maximum speed, average speed when moving or over the whole-time bin and distance travelled. After 40 min, when data acquisition was complete, rats were removed from the cages.
On removal from the test cages, rats were anaesthetised with the gaseous anaesthetic isoflurane (5% v/v isoflurane in oxygen) and blood samples were collected by cardiac puncture. Brains were then removed, rinsed in phosphate buffered saline (PBS), hemi-sected and frozen separately in liquid nitrogen.
Data were analysed with Statistica software (TIBCO, USA version 11.1). All data are expressed as means±standard error of the mean (sem) to one decimal place. […] Time course data were analysed by repeated measures analysis of variance (ANOVA) followed by one-way ANOVAs at each time point and subsequent Dunnett's post hoc tests. […]

In data set [6] the test system is kainic acid seizure model. Description: Kainic acid seizure model in the rat. It counts as in vivo. The procedure:
Kainic acid is an analog of the excitatory neurotransmitter, glutamate and acts as an agonist of kainic acid receptors. After systemic injection, kainic acid induces prolonged excitatory responses with many of the features of human temporal lobe epilepsy.
Rats, placed in individual Plexiglas cages (33×21×18 cm), are injected with kainic acid (20 mg/kg i.p.). The occurrences of the following symptoms are noted over a 120-minute period 30 minutes after kainic acid injection: forelimb clonus, rearings and rearings with falling, clonic convulsions, tonic convulsions and death. The presence of each symptom and the latencies to the first appearance of the symptoms are measured. The number of forelimb clonus is counted.
12 rats are studied per group. The test is performed partially blind.
The test substances will be evaluated at multiple doses, administered p.o. 240 minutes before the test, and compared with the corresponding vehicle control group (Group 2, administered with 10% HP-b-CD in distilled water, p.o. 240 minutes before the test).
Example 6 was evaluated at 0.3, 1, 3 and 10 mg/kg, and Example 8 was evaluated at 1, 3 and 10 mg/kg, administered p.o. 4 hours before the test, and compared with a vehicle control group (administered with 10% HP-b-CD, p.o. 4 hours before the test).
Diazepam (16 mg/kg) used as reference substance, was administered p.o. 60 minutes before the test (0.5% HP-b-CD) and was compared with vehicle controls.
Quantitative data (latencies) with the test substance was analyzed by comparing treated groups with vehicle control using Kruskal-Wallis test followed by Mann-Whitney U test. Quantitative data with the reference substance will be analysed using Mann-Whitney U test.
Quantal data (frequencies) were analyzed by comparing treated groups with vehicle control using Fisher's Exact Probability tests.

Data set [7] deals with maximal electroshock seizure threshold (MEST) model. Description: Maximal electroshock seizure threshold (MEST) model in the rat. It counts as in vivo. The following applies: 10 mg/kg p.o., 240 min pre-treatment. On the procedure: In the MEST model, a low-intensity electrical current of high frequency and short duration is applied to induce tonic convulsions.
Animals were randomly assigned to vehicle, compound treatment or Lamotrigine dose groups. Animals were dosed at 5 mL/kg according to treatment groups (n=12 or 16/group), with either vehicle (0.5% MC) p.o. for Example 6, vehicle (10% HP-b-CD) for Example 8, test compound at 10 mg/kg p.o. 240 min pre-treatment time, or Lamotrigine p.o. 360 min pre-treatment time. Rats were individually assessed for production of a tonic hind limb extensor seizure following a single corneally delivered electroshock of 0.3 second duration, using an ‘up and down method’ of shock titration (Kimball A W et al., 1957). Thus, the first rat within a treatment group was given a shock at the expected or estimated CC50 current (current producing tonic hind limb extensor seizures in 50% of animals). […] This procedure was continued for all rats within a treatment group. Induction of seizure was measured as an all-or-nothing effect scored as either present (+) or absent (0) for each animal. […]
Significant differences between drug-treated animals and controls were assessed according to Litchfield and Wilcoxon (1949) or One-Way ANOVA followed by Dunnett's multiple comparisons test.
(In general: In the maximal electroshock model the usual endpoint is tonic extension of the hind limbs.)

SMILES strings stand for the structures.

On to `O=C(Nc1cccnc1)[C@H]1CC12CCN(C(=O)OC(C(F)(F)F)C(F)(F)F)CC2` (single isomer, unassigned) [Example 2], for which, at MAGL [1], the IC50 came to 0.00289 µM. Besides, on MAGL [2], the inhibition at 1 µM was 100% and the IC50 turned out to be 0.002 µM. Further, the “Scaled-up unbound CLint” value in data set [3] worked out at 34.8 mL/min/kg.
The compound `N#Cc1ccc(NC(=O)C2CC23CCN(C(=O)OC(C(F)(F)F)C(F)(F)F)CC3)cn1` (racemic) [Example 189, 1,1,1,3,3,3-hexafluoropropan-2-yl (+)1-((6-cyanopyridin-3-yl)carbamoyl)-6-azaspiro[2.5]octane-6-carboxylate] registered an IC50 against MAGL [4] of 0.0033 µM.
In turn, `O=C(Nc1cncnc1)C1CC12CCN(C(=O)OC(C(F)(F)F)C(F)(F)F)CC2` (single isomer, unassigned) [Example 96, 1,1,1,3,3,3-hexafluoropropan-2-yl (R or S)-1-(pyrimidin-5-ylcarbamoyl)-6-azaspiro[2.5]octane-6-carboxylate] registered an IC50 at MAGL [1] of 0.0489 µM. For the same compound, on MAGL [2], the inhibition at 1 µM came to 100% and the IC50 was determined as 0.0193 µM. Besides, the “Scaled-up unbound CLint” value in data set [3] is listed as 17.09 mL/min/kg.
With `CC1(CNC(=O)C2CC23CCN(C(=O)OC(C(F)(F)F)C(F)(F)F)CC3)CCOCC1` (single isomer, unassigned) [Example 168, 1,1,1,3,3,3-hexafluoropropan-2-yl (R or S)-1-(((4-methyltetrahydro-2H-pyran-4-yl)methyl)carbamoyl)-6-azaspiro[2.5]octane-6-carboxylate], on MAGL [2], the IC50 is 0.0074 µM. Also, in data set [3], the “Scaled-up unbound CLint” value is 61.36 mL/min/kg.
Taken in the same sequence, the figures for `O=C(Nc1nccs1)C1CC12CCN(C(=O)OC(C(F)(F)F)C(F)(F)F)CC2` (single isomer, unassigned) [Example 138, 1,1,1,3,3,3-hexafluoropropan-2-yl (R or S)-1-(thiazol-2-ylcarbamoyl)-6-azaspiro[2.5]octane-6-carboxylate] were 0.001 µM and 40.48 mL/min/kg.
As for `O=C(O)COc1ccc(NC(=O)C2CC23CCN(C(=O)OC(C(F)(F)F)C(F)(F)F)CC3)cn1` (single isomer, unassigned) [Example 183, (R or S)-2-((5-(6-(((1,1,1,3,3,3-hexafluoropropan-2-yl)oxy)carbonyl)-6-azaspiro[2.5]octane-1-carboxamido)pyridin-2-yl)oxy)acetic acid], the IC50 against MAGL [4] amounted to 0.39 µM.
Turning to `O=C(Nc1cncc(F)c1)C1CC12CCN(C(=O)OC(C(F)(F)F)C(F)(F)F)CC2` (single isomer, unassigned) [Example 40, 1,1,1,3,3,3-hexafluoropropan-2-yl (R or S)-1-((5-fluoropyridin-3-yl)carbamoyl)-6-azaspiro[2.5]octane-6-carboxylate], the IC50 at MAGL [1] was determined as 0.00343 µM; at MAGL [2], 0.0027 µM. Further, in data set [3], the “Scaled-up unbound CLint” value was determined as 43.25 mL/min/kg.
As to `O=C(NC1CCOCC1)[C@H]1CC12CCN(C(=O)OC(C(F)(F)F)C(F)(F)F)CC2` [Example 8, 1,1,1,3,3,3-Hexafluoropropan-2-yl (S)-1-((tetrahydro-2H-pyran-4-yl)carbamoyl)-6-azaspiro[2.5]octane-6-carboxylate], the “measure of spontaneous pain (hind limb licking frequency)” value in data set [5] (0.3 mg/kg and 0.6 mg/kg oral, late phase) is reported as “statistically significant reduction”; in data set [5] (1 mg/kg, 3 mg/kg and 10 mg/kg oral, both early and late phases), “statistically significant reduction”. Besides, the “anticonvulsant effects in the kainic acid seizure test” value in data set [6] (dose-range 1-10 mg/kg p.o., 4 hours before the test, rat) was “clear anticonvulsant effects”. The “magnitude of the effects in the kainic acid seizure test compared with reference” value in data set [6] (middle-high doses, reference Diazepam 16 mg/kg p.o.) is “close to those observed with the reference substance, Diazepam”. The “anticonvulsant activity in the MEST (seizure threshold CC50)” value in data set [7] is reported as “anticonvulsant activity”. The compound further returned an IC50 on MAGL [2] of 0.0657 µM. The “Scaled-up unbound CLint” value in data set [3] is listed as 7.75 mL/min/kg.
